Test results as given in the supplement of paper PMC10307832.

Experiments:
Assay in all cases: relative viability (nuclei count vs DMSO), 5 days (fraction); higher = more cells survive
Idelalisib + Phenformin = compound: CC[C@H](Nc1ncnc2[nH]cnc12)c1nc2cccc(F)c2c(=O)n1-c1ccccc1 [Idelalisib] + N=C(N)NC(=N)NCCc1ccccc1 [Phenformin] (partner 250 µM)
Method in brief: (§1)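 Values are medians from duplicate plates. Each reflects relative viability, defined as the nuclei count of treated wells over that of vehicle wells. Lung cancer cell lines in 1536-well plates were pin-tool dosed one day after seeding with one drug alone or with a fixed anchor-drug dose plus five library-drug doses (not always all listed) in √10 steps, then fixed, stained and imaged at 4× after 5 days.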

Pemetrexed + Alpelisib = compound: Nc1nc2[nH]cc(CCc3ccc(C(=O)N[C@@H](CCC(=O)O)C(=O)O)cc3)c2c(=O)[nH]1 [Pemetrexed] + Cc1nc(NC(=O)N2CCC[C@H]2C(N)=O)sc1-c1ccnc(C(C)(C)C(F)(F)F)c1 [Alpelisib] (partner 2 µM)
Method in brief: as §1

Idelalisib + Crizotinib = compound: CC[C@H](Nc1ncnc2[nH]cnc12)c1nc2cccc(F)c2c(=O)n1-c1ccccc1 [Idelalisib] + C[C@@H](Oc1cc(-c2cnn(C3CCNCC3)c2)cnc1N)c1c(Cl)ccc(F)c1Cl [Crizotinib] (partner 1 µM)
Method in brief: as §1

Pemetrexed + Navitoclax = compound: Nc1nc2[nH]cc(CCc3ccc(C(=O)N[C@@H](CCC(=O)O)C(=O)O)cc3)c2c(=O)[nH]1 [Pemetrexed] + CC1(C)CCC(c2ccc(Cl)cc2)=C(CN2CCN(c3ccc(C(=O)NS(=O)(=O)c4ccc(N[C@H](CCN5CCOCC5)CSc5ccccc5)c(S(=O)(=O)C(F)(F)F)c4)cc3)CC2)C1 [Navitoclax] (partner 0.5 µM)
Method in brief: as §1

UMC-11 showed a relative viability (Idelalisib + Phenformin; first compound 0.04 µM) of 0.323, a relative viability (Idelalisib + Phenformin; first compound 0.1265 µM) of 0.327 and a relative viability (Idelalisib + Phenformin; first compound 0.4 µM) of 0.303. For the same cell line, the relative viability (Idelalisib + Phenformin; first compound 1.265 µM) was 0.321, the relative viability (Idelalisib + Phenformin; first compound 4 µM) was 0.318 and the relative viability (Pemetrexed + Alpelisib; first compound 0.002 µM) was 1.04. The relative viability (Pemetrexed + Alpelisib; first compound 0.006325 µM) was 1.03, the relative viability (Pemetrexed + Alpelisib; first compound 0.02 µM) was 1 and the relative viability (Pemetrexed + Alpelisib; first compound 0.06325 µM) was 1.03. It also gave a relative viability (Pemetrexed + Alpelisib; first compound 0.2 µM) of 0.829, a relative viability (Idelalisib + Crizotinib; first compound 0.04 µM) of 0.708 and a relative viability (Idelalisib + Crizotinib; first compound 0.1265 µM) of 0.694. The relative viability (Idelalisib + Crizotinib; first compound 0.4 µM) was 0.583, the relative viability (Idelalisib + Crizotinib; first compound 1.265 µM) was 0.541 and the relative viability (Idelalisib + Crizotinib; first compound 4 µM) was 0.57. The relative viability (Pemetrexed + Navitoclax; first compound 0.002 µM) was 0.292, the relative viability (Pemetrexed + Navitoclax; first compound 0.006325 µM) was 0.283 and the relative viability (Pemetrexed + Navitoclax; first compound 0.02 µM) was 0.354. For the same cell line, the relative viability (Pemetrexed + Navitoclax; first compound 0.06325 µM) was 0.312 and the relative viability (Pemetrexed + Navitoclax; first compound 0.2 µM) was 0.344.
